The values that follow come from patent US8629242B2, “Methods of inhibiting calcineurin with ApoE analogs” (Cognosci, Inc., priority 2007, dated 2014).

Read-outs that look alike come from different tables or passages of the source. Where a SMILES comes first, the peptide text is derived from it. [ ]: non-standard residue; d: D form. Arg(NO2) = N=C(NCCC[C@H](N)C(=O)O)N[N+](=O)[O-]; Aib = CC(C)(N)C(=O)O

A short description of series [1]: Maximum tolerated dose. The class given is in vivo. The conditions noted are these: in vivo. From the text: To fully evaluate the use of ApoE analogs as therapeutic compounds, the margin of safety should also be determined. Towards that end, we determined the maximum tolerated dose of COG 112, COG 248, and COG 345 when administered by intravenous and subcutaneous injection.

The subject of series [2] is oligodendrocyte precursor cells (OPC)/microglia mixed culture. The series is described as follows: LPS-induced OPC cell death in OPC/microglia mixed culture. The conditions noted are these: 1 μM, LPS 10 ng/ml, 24 hours. The class given is cell-based, rat. The procedure:
FIG. 9. COG 112 protects OPCs from LPS-induced cell death in OPC/microglia mixed culture. LPS (final conc. 10 ng/ml) was added to an OPC/microglia mixed culture with or without 1 μM COG 112. The prefix peptide of COG 112, antennapedia, was used as a negative control. Cells were fixed with 4% formaldehyde and stained with the OPC marker, NG2, and counterstained with hoescht. (A) LPS-treated cultures; (B) LPS+antennapedia (Antp)-treated cultures; (C) LPS+COG 112-treated cultures; (D) Bar graph summarizing the number of NG2+ cells per field in each condition. ** p<0.01.
FIG. 19. COG 345 promotes remyelination in lysolecithin-induced demyelination model of cerebellum slices. Significant demyelination was induced by lysolecithin (0.5 mg/ml) in cerebellar slices. COG 112 or COG 345 (1 μM) was added on day 3 when full demyelination was achieved. 4 days later, the slices were fixed and double stained with myelin marker MBP (green) and Purkinje cell marker calbindin (red). (A) Untreated-slices; (B) lysolecithin-treated slices; (C) COG 112-treated slices after lysolecithin exposure; (D) COG 345-treated slices after lysolecithin exposure. E-F. ApoE analogs protect OPCs from LPS-induced cell death in OPC/microglia mixed culture. OPCs and microglia derived from brain culture of P2 rat pups were plated in 96-well plates in 1:1 ratio. LPS (10 ng/ml) together with 1 μM of the indicated ApoE analogs was added to the cultures. After 24 hours, OPC cell death was quantified by LDH assay (E) and MTT assay (F). Statistical analysis was conducted by one-way ANOVA followed by Dunnett comparison vs. LPS group. * P<0.01, ** P<0.001, n=3.
A primary culture prepared from the brains of P2 Sprague-Dawley rat pups was grown for seven days. Microglia and OPCs were shaken off from the primary culture with an orbital shaker at 150˜200 rpm. The OPCs and microglia were plated in 24-well plates at a 1:1 ratio with 5×10^4 cells per well of each cell type. After 24 hours, LPS (final conc. 10 ng/ml) was added with or without 1 μM COG 112. The prefix peptide of COG 112, antennapedia, was used as a negative control. After incubation for 72 hours, the medium was removed and cells were fixed with 4% formaldehyde and stained with the OPC marker, NG2, and counterstained with hoescht. Five fields from each of the wells were randomly chosen to count the number of NG2-positive cells.
To further assess the ability of the novel ApoE analogs to promote remyelination, the effect of the analogs on OPC survival was assessed in an OPC/microglia mixed culture. OPC and microglia derived from primary culture of P2 rat pup brain were plated on 96-well plates in 1:1 ratio. […] After 24 hours, cell death of OPC was quantified by both LDH and MTT assays.

In series [3] the target is T1, Calcineurin (Homo sapiens, UniProt Q08209).
T1 construct: purchased BioMol AK-804
In words: Cell-free calcineurin phosphatase activity assay (BioMol kit). Particulars: various concentrations. It counts as biochemical. The procedure:
FIG. 14. ApoE analogs bind directly to calcineurin and inhibit its activity. […] (B) Immunoprecipitation of human brain lysate with a biotin-COG 133 conjugate. Lane 1=markers; lane 2=clear bead; lane 3=biotin-COG 133 bead conjugate; and lane 4=10 μg lysate. (C) Immunoprecipitation of different glial cultures with a biotin-COG 133 conjugate. Lane 1=markers; lane 2=astrocyte; lane 3=microglia; and lane 4=oligodendrocyte precursor cells (OPC). Blots in B and C were probed for calcineurin (PP2B).
Calcineurin activity was measured in a cell-free in vitro assay in the presence of various concentrations of COG 133 (SEQ ID NO: 1), COG 112 (SEQ ID NO: 5), COG 68 (SEQ ID NO: 7), COG 125 (Ac-AS(Aib)LRKL(Aib)KR—COOH; SEQ ID NO: 8), or antennapedia (antp), the prefix peptide for COG 112. […] Using a BioMol Calcineurin Phosphatase Activity Kit (Cat. #AK-804), the assay was conducted according to manufacturer's instructions. […] This inhibition of calcineurin activity by ApoE analogs is mediated by a direct interaction of the ApoE analog with the phosphatase.

A short description of series [4]: Anti-inflammatory properties in vitro or in vivo (general statement). An excerpt: The following ApoE analogs, COG 112, COG 1410, COG 241, COG 248, COG 68, and COG 345, have been identified as having improved properties as compared to the ApoE peptide, COG 133.
Series [5] deals with microglia cell line BV2. The series is described as follows: LPS-induced NO and TNF-α release in BV2 microglia. Particulars: LPS 10 ng/ml, 24 hours. The class given is cell-based, murine. The procedure:
FIG. 16. […] Series concentrations of ApoE analogs were added to culture medium together with LPS (10 ng/ml). 24 hours later, culture medium was collected for measurement of NO by Griess assay or TNF-α by ELISA. […] ApoE analogs (10 μM) were added to the cell medium of human macrophage U937 5 minutes prior to PMA+LPS treatment. The release of superoxide in culture medium was measured by Luminol assay kit (Calbiochem).
The murine microglia cell line BV2 was used as the first screening platform to compare the potency of ApoE analogs in anti-inflammatory activity. In response to LPS, BV2 produces amounts of reactive radical NO and inflammatory cytokines, such as TNF-α and IL-6. We stimulated the cells with LPS (10 ng/ml) in the presence of several concentrations of each of the ApoE analogs. We measured NO in medium by Griess assay and TNF-α by ELISA 24 hours after LPS stimulation of the cells. The IC50 value was calculated for each of the ApoE analogs.

For series [6], the system named is PLP-induced relapsing-remitting experimental autoimmune encephalomyelitis (EAE) model. In words: PLP-induced relapsing-remitting EAE model. It counts as in vivo. Set-up: CSmax during relapse (mean ± SEM) / Area under curve (mean ± SEM): scale not given here. Particulars: 4 mg/kg s.c. The procedure: To further compare the activity of the various ApoE analogs, the efficacy of the analogs was assessed in a PLP-induced relapsing-remitting experimental autoimmune encephalomyelitis (EAE) model. […] The second dose was administered the next day followed by three times a week (M, W, F). Relapse rate represents the number of animals experiencing a relapse, while the CSmax indicates the maximal clinical score during relapse. Area under curve represents the area under the curve in a plot of clinical score vs. days post-inoculation (out to 60 days). […] The improvement in relapse rate and clinical score in the EAE model by ApoE analog treatment may be due, in part, to the remyelination-promoting effect of the ApoE analogs.

The test system of series [7] is enriched OPC cultures. The series is described as follows: Number of mature oligodendrocytes after differentiation of enriched OPC culture. The class given is cell-based, rat. Particulars: 2 μM COG 133, 1 μM COG 112 or 1 μM COG 68 for four days, then six days differentiation without analog. The method, then: FIG. 11. ApoE analogs increase the number of mature oligodendrocytes in culture. ApoE analogs (COG 133, COG 112, and COG 68) were added to enriched OPC culture in proliferation media for four days. Cultures were then differentiated in the absence of the ApoE analogs. Cells were labeled with a GST-π antibody to detect mature oligodendrocytes.
Since COG 112 increased the proliferation of OPCs, we next examined whether the ApoE analogs could also increase the number of mature oligodendrocytes. Enriched OPC cultures were prepared as described for the previous experiment. 2 μM COG 133 (SEQ ID NO: 1), 1 μM COG 112 (SEQ ID NO: 5), or 1 μM COG 68 (Ac-[…]-NH2; SEQ ID NO: 7) were added to the enriched OPC cultures in proliferation media for four days. The media was then replaced with differentiation medium without the ApoE analogs for an additional six days. Cells were labeled with a GST-π antibody to detect mature oligodendrocytes.

For the compound `CC(=O)N[C@@H](CC(C)C)C(=O)N[C@@H](CCCNC(=N)N)C(=O)N[C@H](C(=O)N[C@@H](CCCNC(=N)N)C(=O)N[C@@H](CC(C)C)C(=O)N[C@@H](C)C(=O)N[C@@H](CO)C(=O)NC(C)(C)C(=O)N[C@@H](CC(C)C)C(=O)N[C@@H](CCCNC(=N)N)C(=O)N[C@@H](CCCCN)C(=O)N[C@@H](CC(C)C)C(=O)N[C@@H](CCCNC(=N)N)C(=O)N[C@@H](CCCCN)C(=O)N[C@@H](CCCNC(=N)N[N+](=O)[O-])C(=O)N[C@@H](CC(C)C)C(=O)N[C@@H](CC(C)C)C(N)=O)C(C)C` [COG 248, acetyl-LRVRLAS-Aib-LRKLRK(nitro-Arg)LL-amide] (Ac-LRVRLAS[Aib]LRKLRK[Arg(NO2)]LL-NH2), the MTD in series [1] (sc, subcutaneous injection, read-out: Maximum Tolerated Dose Subcutaneous) was over 150 mg/kg; in series [1] (intravenous injection, read-out: Maximum Tolerated Dose Intravenous) it was 25 mg/kg.

Regarding `CCCCCCCCc1ccc(CCC(N)(CO)CO)cc1` [FTY720, reference compound], the “OPC cell death by LDH and MTT assays” value in series [2] was “did not show a clear protective effect”.

In the case of “acetyl-AS-Aib-LRKL-Aib-KR-amide (Ac-AS[Aib]LRKL[Aib]KR-NH2; SMILES CC(=O)N[C@@H](C)C(=O)N[C@@H](CO)C(=O)NC(C)(C)C(=O)N[C@@H](CC(C)C)C(=O)N[C@@H](CCCNC(=N)N)C(=O)N[C@@H](CCCCN)C(=O)N[C@@H](CC(C)C)C(=O)NC(C)(C)C(=O)N[C@@H](CCCCN)C(=O)N[C@@H](CCCNC(=N)N)C(N)=O) [COG 125, reference compound]”, in series [3], the “inhibition of calcineurin activity” value is “Inactive”. Further, the anti-inflammatory properties result in series [4] is reported as “did not exhibit any anti-inflammatory properties”.

Regarding “acetyl-AS-Aib-LRKL-Aib-KRLL-amide [COG 1410]”, in series [5], the “activity in suppression of microglia activation (NO by Griess assay, TNF-α by ELISA)” value is “clearly superior to that of COG 133”.

Take “acetyl-Aib-LRKL-Aib-(n acetyl K)RLL-amide (Ac-[Aib]LRKL[Aib]K(Ac)RLL-NH2; SMILES CC(=O)NCCCC[C@H](NC(=O)C(C)(C)NC(=O)[C@H](CC(C)C)NC(=O)[C@H](CCCCN)NC(=O)[C@H](CCCNC(=N)N)NC(=O)[C@H](CC(C)C)NC(=O)C(C)(C)NC(C)=O)C(=O)N[C@@H](CCCNC(=N)N)C(=O)N[C@@H](CC(C)C)C(=O)N[C@@H](CC(C)C)C(N)=O) [COG 241]”: the “Area under curve (mean ± SEM)” value in series [6] (clinical score vs days post-inoculation, out to 60 days) was 13.5 ± 2.6. In series [6] (maximal clinical score during relapse), the “CSmax during relapse (mean ± SEM)” value was 2.3 ± 0.8. Further, in series [6] (number of animals experiencing a relapse), the “Relapse Rate” value was 8/15.

For the compound “acetyl-RRLSYSRRRFLRVRLASHLRKLRKRLL-amide (Ac-RRLSYSRRRFLRVRLASHLRKLRKRLL-NH2) [COG 68, ApoE peptide linked to the protein transduction domain SynB3]”, the “number of mature oligodendrocytes (GST-π)” value in series [7] is “significantly increased the number of mature oligodendrocytes”. Further, the “inhibition of calcineurin activity” value in series [3] was “dose-dependent inhibition”. In series [5], the “activity in suppression of microglia activation (NO by Griess assay, TNF-α by ELISA)” value is given as “clearly superior to that of COG 133”.
